Measured values from US20250387369A1 (priority 2022, published 2025).
Like-named read-outs stand apart in the source and are kept apart here.

What was measured:
Format in all cases: cell-based
[1] = system: SARS-COV-2 (a prototype having D614G mutation)
[2] = system: SARS-COV-2 (a prototype having D614G mutation); remark: listed apart in the source
[3] = system: SARS-COV-2 Omicron mutant BA.1 strain
[4] = system: SARS-COV-2 Omicron mutant BA.2 strain

| SMILES | IC50 [1] [µM] | IC50 [2] [µM] | IC50 [3] [µM] | IC50 [4] [µM] |
| --- | --- | --- | --- | --- |
| COc1cc(COc2ccc3[nH]cc(CC(=O)O)c3c2)cc(OC)c1 [Compound #35] | 15.4 |  |  |  |
| CC(C)C(=O)OC[C@H]1O[C@@H](n2ccc(NO)nc2=O)[C@H](O)[C@@H]1O [Molnupiravir] |  | 4.2 | 4 | 2.8 |
| CC(C)(C)OC(=O)NCCCCCCC(C)(C(=O)O)c1c[nH]c2ccccc12 (centres unmarked) [Compound #13] | 1.1 |  |  |  |
